Results: paper PMC9694544, “Conteltinib (CT-707) in patients with advanced ALK-positive non-small cell lung cancer: a multicenter, open-label, first-in-human phase 1 study” (BMC Medicine, 2022)

Tested on: patients with ALK-positive NSCLC
Assay: Phase 1 safety assessment (TRAEs by CTCAE 4.03, DLT, MTD, RP2D)
Type: in vivo, human
Procedure: In the dose-escalation phase, the dose was escalated sequentially from a low to a high level with a 3 + 3 dose-escalation scheme based on the modified Fibonacci method. The starting dose for conteltinib was 50 mg orally quaque die (QD). Dose escalation proceeded to the next six cohorts of 100 mg, 200 mg, 300 mg, 450 mg, 600 mg, and 800 mg QD. For each dose, there was a PK lead-in phase where a single dose was given 7 days before cycle 1 day 1. Then, each dose was taken continuously in a 28-day cycle. The first cycle was for dose-limiting toxicity (DLT) investigation. When one of three patients experienced a DLT in a dose cohort, three additional patients were enrolled in the same dose cohort to assess the dose level in a total of six patients. All patients received conteltinib until disease progression, unacceptable toxicity, or withdrawal of consent. Patients received follow-up safety assessments for 30 days (±7 days) after the last conteltinib dose.
In the dose-expansion phase, each dose was taken continuously in a 28-day cycle. At the end of each cycle, a safety evaluation was conducted. If patients met the criteria to enter the next cycle, treatment with conteltinib was continued for subsequent cycles. All patients received conteltinib until disease progression, unacceptable toxicity, or withdrawal of consent. Patients received follow-up safety assessments for 30 days (±7 days) after the last dose of conteltinib.
The safety of conteltinib was assessed in safety set (SS) which was based on the National Cancer Institute Common Terminology Criteria for Adverse Events (CTCAE) version 4.03, laboratory tests, vital signs, ECG, and clinical observations. […] Adverse events (AEs) were judged to be treatment-related or not by investigators.
DLTs were AEs occurring in the first cycle of treatment (28 days) that were attributed to conteltinib, and the criteria were grade 4 neutropenia lasting ≥ 7 days, febrile neutropenia, grade 3 thrombocytopenia, grade 3 non-hematologic toxicity, and any conteltinib-related toxicity resulting in treatment delay > 2 weeks or discontinuation of conteltinib treatment at the assigned dose level. Besides, grade 3 nausea, vomiting, or diarrhea for ≥ 3 days or grade 4 nausea, vomiting, or diarrhea of any duration was considered as a DLT. The MTD was defined as the dose of conteltinib that would be closest to but not higher than a 33% probability of a DLT.

COc1cc(N2CCC(N3CCN(C)CC3)CC2)ccc1Nc1nc2c(c(Nc3ccccc3S(=O)(=O)NC(C)C)n1)CCN2 [Conteltinib]
TRAE Hypertriglyceridemia (800 mg QD (n=4), Grade ≥ 3): 0 (0.0) n (%) | TRAE Hyperuricemia (800 mg QD (n=4), Grade ≥ 3): 0 (0.0) n (%) | TRAE Hypoalbuminemia (800 mg QD (n=4), Grade ≥ 3): 0 (0.0) n (%) | TRAE Nausea (800 mg QD (n=4), Grade ≥ 3): 0 (0.0) n (%) | TRAE Proteinuria (800 mg QD (n=4), Grade ≥ 3): 0 (0.0) n (%) | TRAE Serum creatinine elevated (800 mg QD (n=4), Grade ≥ 3): 0 (0.0) n (%) | TRAE Vomiting (800 mg QD (n=4), Grade ≥ 3): 0 (0.0) n (%) | TRAE Weight loss (800 mg QD (n=4), Grade ≥ 3): 0 (0.0) n (%) | TRAE γ-GGT elevated (800 mg QD (n=4), Grade ≥ 3): 0 (0.0) n (%) | DLTs (800 mg QD cohort): No DLTs were observed | patients with permanent discontinuation due to TRAE (64 patients, impaired liver function): 3.1% | patients with TRAEs leading to conteltinib interruption (64 patients, serum creatinine elevated and impaired liver function): 6.3% | patients with TRAEs leading to dose reduction (64 patients, serum creatinine elevated, neutropenia, impaired liver function): 4.7% | patients with grade ≥ 3 TRAEs (SS, 64 patients): 14.1% | TRAE ALT elevated (SS, 64 patients, all grades): 34.4% | TRAE AST elevated (SS, 64 patients, all grades): 39.1% | TRAE Abdominal pain (SS, 64 patients, all grades): 26.6% | TRAE Abdominal pain upper (SS, 64 patients, all grades): 17.2% | TRAE Appetite decreased (SS, 64 patients, all grades): 18.75% | TRAE Conjugated bilirubin elevated (SS, 64 patients, all grades): 10.9% | TRAE Diarrhea (SS, 64 patients, all grades): 71.9% | TRAE Hypercholesterolemia (SS, 64 patients, all grades): 12.5% | TRAE Hyperglycemia (SS, 64 patients, all grades): 15.6% | TRAE Hypertriglyceridemia (SS, 64 patients, all grades): 23.4% | TRAE Hyperuricemia (SS, 64 patients, all grades): 31.25% | TRAE Hypoalbuminemia (SS, 64 patients, all grades): 17.2% | TRAE Nausea (SS, 64 patients, all grades): 37.5% | TRAE Proteinuria (SS, 64 patients, all grades): 21.9% | TRAE Serum creatinine elevated (SS, 64 patients, all grades): 45.3% | TRAE Vomiting (SS, 64 patients, all grades): 35.9% | TRAE Weight loss (SS, 64 patients, all grades): 28.1% | TRAE γ-GGT elevated (SS, 64 patients, all grades): 32.8% | patients with TRAEs (SS, 64 patients, all grades): 90.6% | TRAE Conjugated bilirubin elevated (SS, 64 patients, grade ≥ 3): 1.6% | TRAE Diarrhea (SS, 64 patients, grade ≥ 3): 3.1% | TRAE Serum creatinine elevated (SS, 64 patients, grade ≥ 3): 1.6% | TRAE γ-GGT elevated (SS, 64 patients, grade ≥ 3): 7.8% | Patients with any TRAE (Total (n=64), All grade): 58 (90.6) n (%) | TRAE ALT elevated (Total (n=64), All grade): 22 (34.4) n (%) | TRAE AST elevated (Total (n=64), All grade): 25 (39.1) n (%) | TRAE Abdominal pain (Total (n=64), All grade): 17 (26.6) n (%) | TRAE Abdominal pain upper (Total (n=64), All grade): 11 (17.2) n (%) | TRAE Appetite decreased (Total (n=64), All grade): 12 (18.8) n (%) | TRAE Conjugated bilirubin elevated (Total (n=64), All grade): 7 (10.9) n (%) | TRAE Diarrhea (Total (n=64), All grade): 46 (71.9) n (%) | TRAE Hypercholesterolemia (Total (n=64), All grade): 8 (12.5) n (%) | TRAE Hyperglycemia (Total (n=64), All grade): 10 (15.6) n (%) | TRAE Hypertriglyceridemia (Total (n=64), All grade): 15 (23.4) n (%) | TRAE Hyperuricemia (Total (n=64), All grade): 20 (31.3) n (%) | TRAE Hypoalbuminemia (Total (n=64), All grade): 11 (17.2) n (%) | TRAE Nausea (Total (n=64), All grade): 24 (37.5) n (%) | TRAE Proteinuria (Total (n=64), All grade): 14 (21.9) n (%) | TRAE Serum creatinine elevated (Total (n=64), All grade): 29 (45.3) n (%) | TRAE Vomiting (Total (n=64), All grade): 23 (35.9) n (%) | TRAE Weight loss (Total (n=64), All grade): 18 (28.1) n (%) | TRAE γ-GGT elevated (Total (n=64), All grade): 21 (32.8) n (%) | Patients with any TRAE (Total (n=64), Grade 1–2): 58 (90.6) n (%) | TRAE ALT elevated (Total (n=64), Grade 1–2): 22 (34.4) n (%) | TRAE AST elevated (Total (n=64), Grade 1–2): 25 (39.1) n (%) | TRAE Abdominal pain (Total (n=64), Grade 1–2): 17 (26.6) n (%) | TRAE Abdominal pain upper (Total (n=64), Grade 1–2): 11 (17.2) n (%) | TRAE Appetite decreased (Total (n=64), Grade 1–2): 12 (18.8) n (%) | TRAE Conjugated bilirubin elevated (Total (n=64), Grade 1–2): 6 (9.4) n (%) | TRAE Diarrhea (Total (n=64), Grade 1–2): 44 (68.8) n (%) | TRAE Hypercholesterolemia (Total (n=64), Grade 1–2): 8 (12.5) n (%) | TRAE Hyperglycemia (Total (n=64), Grade 1–2): 10 (15.6) n (%) | TRAE Hypertriglyceridemia (Total (n=64), Grade 1–2): 15 (23.4) n (%) | TRAE Hyperuricemia (Total (n=64), Grade 1–2): 20 (31.3) n (%) | TRAE Hypoalbuminemia (Total (n=64), Grade 1–2): 11 (17.2) n (%) | TRAE Nausea (Total (n=64), Grade 1–2): 24 (37.5) n (%) | TRAE Proteinuria (Total (n=64), Grade 1–2): 14 (21.9) n (%) | TRAE Serum creatinine elevated (Total (n=64), Grade 1–2): 28 (43.8) n (%) | TRAE Vomiting (Total (n=64), Grade 1–2): 23 (35.9) n (%) | TRAE Weight loss (Total (n=64), Grade 1–2): 18 (28.1) n (%) | TRAE γ-GGT elevated (Total (n=64), Grade 1–2): 16 (25.0) n (%) | Patients with any TRAE (Total (n=64), Grade ≥ 3): 9 (14.1) n (%) | TRAE ALT elevated (Total (n=64), Grade ≥ 3): 0 (0.0) n (%) | TRAE AST elevated (Total (n=64), Grade ≥ 3): 0 (0.0) n (%) | TRAE Abdominal pain (Total (n=64), Grade ≥ 3): 0 (0.0) n (%) | TRAE Abdominal pain upper (Total (n=64), Grade ≥ 3): 0 (0.0) n (%) | TRAE Appetite decreased (Total (n=64), Grade ≥ 3): 0 (0.0) n (%) | TRAE Conjugated bilirubin elevated (Total (n=64), Grade ≥ 3): 1 (1.6) n (%) | TRAE Diarrhea (Total (n=64), Grade ≥ 3): 2 (3.1) n (%) | TRAE Hypercholesterolemia (Total (n=64), Grade ≥ 3): 0 (0.0) n (%) | TRAE Hyperglycemia (Total (n=64), Grade ≥ 3): 0 (0.0) n (%) | TRAE Hypertriglyceridemia (Total (n=64), Grade ≥ 3): 0 (0.0) n (%) | TRAE Hyperuricemia (Total (n=64), Grade ≥ 3): 0 (0.0) n (%) | TRAE Hypoalbuminemia (Total (n=64), Grade ≥ 3): 0 (0.0) n (%) | TRAE Nausea (Total (n=64), Grade ≥ 3): 0 (0.0) n (%) | TRAE Proteinuria (Total (n=64), Grade ≥ 3): 0 (0.0) n (%) | TRAE Serum creatinine elevated (Total (n=64), Grade ≥ 3): 1 (1.6) n (%) | TRAE Vomiting (Total (n=64), Grade ≥ 3): 0 (0.0) n (%) | TRAE Weight loss (Total (n=64), Grade ≥ 3): 0 (0.0) n (%) | TRAE γ-GGT elevated (Total (n=64), Grade ≥ 3): 5 (7.8) n (%) | DLTs (dose-expansion phase): No DLTs were observed | MTD (doses 50 to 800 mg QD): not reached | deaths during treatment (in vivo): No patients died | rash (this study): 6.25% | visual effects (this study): 1.6%
